Laboratory results published in patent publication US20130295060A1, “METHOD FOR CULTURING CARDIAC PROGENITOR CELLS AND USE OF CARDIAC PROGENITOR CELLS” (Ewha University-Industry Collaboration Foundation, priority 2012, published 2013).

Experiments:
[1] = tested on: cardiac progenitor cell-induced fibrinolysis; assay: Inhibition of antifibrinolytic agents against cardiac progenitor cell-induced fibrinolysis (fibrin hydrogel degradation, Alexa Fluor 488-fibrinogen release); assay type: cell-based
Protocol: The cardiac progenitor cells were mixed at a density of 2×10^5 cells per 100 μl of each of the four fibrinogen solutions with 100 μl of the thrombin solution, followed by a cross-linking reaction for 2 hrs. Following the formation of hydrogel, 300 μl of a cell culture was added to the hydrogel, and incubated for 1 day. A hydrogel void of cardiac progenitor cells was prepared for use as a control.
Antifibrinolytic agents were purchased from Sigma.

[2] = tested on: myocardial fragments; assay: Organ culture of myocardial fragments in fibrin hydrogel with antifibrinolytic agent (phase-contrast microscopy); assay type: cell-based, human; conditions: 100 μg/ml solution added to fibrinogen solution, organ culture 3 days
Protocol: Four fibrinogen solutions with respective concentrations of 2.5, 5.0, 10.0, and 20.0 mg/ml were prepared, and each was added with a 100 μg/ml aminomethylbenzoic acid or tranexamic acid solution, as in Example 5. From the heart of a brain-dead patient, the myocardium was taken after the removal of both the epicardium and the endocardium. […] The myocardial fragments were added at a density of 10 per 0.5 ml of a 1 unit/ml thrombin solution. Each of the four fibrinogen solutions was mixed at a volume ratio of 1:1 with the thrombin solution containing the cardiac fragments. The resulting mixture was aliquoted in an amount of 1 ml per well into 6-multiwell tissue culture plates before performing a polymerization and cross-linking reaction to form a hydrogel.

[3] = tested on: cardiac progenitor cells; assay: Effect of concentration of antifibrinolytic agent on cardiac progenitor cell-induced degradation of hydrogel (toluidine blue); assay type: cell-based; conditions: 0.5 or 1.0 mg/ml, 1 day culture
Protocol: 100 μl of the fibrinogen solution containing cardiac progenitor cells was added to 100 μl of each of the respective thrombin solutions containing aminomethylbenzoic acid in concentrations of […], 0.5, and 1.0 mg/ml. After complete formation of hydrogel, cardiac progenitor cells were cultured for 1 day, fixed with formalin, and stained with toluidine blue. An examination was made of the states of the fibrin hydrogels and cells.

[4] = tested on: cardiac progenitor cells; assay: Suspension cell culture assay for differentiation into cardiomyocytes (real-time PCR); assay type: cell-based; conditions: 1 mM in medium, 1 and 3 days
Protocol: A suspension of cardiac progenitor cells in a medium inducing myocardial differentiation was seeded at a density of 20,000 to 100,000 cells/well into polymer-coated 24-multiwell tissue culture plates preventive of cell and protein adhesion (Ultra-Low Attachment Surface, Corning, Lowell, Mass.). The medium was supplemented with 1 mM Wnt3a or Dkk1 before culturing the cardiac progenitor cells in a suspension culture condition or a monolayer culture condition. After culturing for 1 and 3 days, RNA was isolated from the cardiac progenitor cells and used to synthesize cDNA. Real-time PCR was performed on this cDNA to quantify mRNA levels of bone morphogenetic protein 2 (BMP2), SOX17, ANP, α-MHC, β-MHC, MLC2a, and MLC2v (myosin light chain-2 ventricle), which are involved in the formation of cardiospheres or the Wnt signaling pathway, thus evaluating the potential to differentiate into cardiomyocytes.

Molecule | mRNA levels of ANP, α-MHC, β-MHC, MLC-2a and MLC2v [4] | mRNA levels of BMP2 and SOX17 [4] | further results
NC[C@H]1CC[C@H](C(=O)O)CC1 [tranexamic acid] | – | – | antifibrinolytic activity compared with aminocaproid acid or aprotinin [1]: three times as high; hydrogel as cell adhesion substrate during organ culture of myocardial fragments [2]: stable, three-dimensional cell adhesion substrates
aprotinin | – | – | degradation of fibrin hydrogel by cardiac progenitor cells ([1]; hydrogel containing the antifibrinolytic agent, cardiac progenitor cells embedded, incubated 1 day): 95%
NCc1ccc(C(=O)O)cc1 [aminomethylbenzoic acid] | – | – | cytotoxicity to the cardiac progenitor cells [3]: caused cytotoxicity
Dkk1: factor of the Wnt signaling pathway added to the differentiation medium (protein, UniProt O94907 32-266, looked up) Dickkopf-related protein 1: TLNSVLNSNAIKNLPPPLGGAAGHPGSAVSAAPGILYPGGNKYQTIDNYQPYPCAEDEECGTDEYCASPTRGGDAGVQICLACRKRRKRCMRHAMCCPGNYCKNGICVSSDQNHFRGEIEETITESFGNDHSTLDGYSRRTTLSSKMYHTKGQEGSVCLRSSDCASGLCCARHFWSKICKPVLKEGQVCTKHRRKGSHGLEIFQRCYCGEGLSCRIQKDHHQASNSSRLHTCQRH | reduced | decreased | –
Wnt3a: factor of the Wnt signaling pathway added to the differentiation medium (protein, UniProt P56704 19-352, looked up) Protein Wnt-3a: SYPIWWSLAVGPQYSSLGSQPILCASIPGLVPKQLRFCRNYVEIMPSVAEGIKIGIQECQHQFRGRRWNCTTVHDSLAIFGPVLDKATRESAFVHAIASAGVAFAVTRSCAEGTAAICGCSSRHQGSPGKGWKWGGCSEDIEFGGMVSREFADARENRPDARSAMNRHNNEAGRQAIASHMHLKCKCHGLSGSCEVKTCWWSQPDFRAIGDFLKDKYDSASEMVVEKHRESRGWVETLRPRYTYFKVPTERDLVYYEASPNFCEPNPETGSFGTRDRTCNVSSHGIDGCDLLCCGRGHNARAERRREKCRCVFHWCCYVSCQECTRVYDVHTCK | increased | increased | –
